Target: T1, Broad substrate specificity ATP-binding cassette transporter ABCG2 (Homo sapiens, UniProt Q9UNQ0)
T1 sequence (Q9UNQ0 whole entry): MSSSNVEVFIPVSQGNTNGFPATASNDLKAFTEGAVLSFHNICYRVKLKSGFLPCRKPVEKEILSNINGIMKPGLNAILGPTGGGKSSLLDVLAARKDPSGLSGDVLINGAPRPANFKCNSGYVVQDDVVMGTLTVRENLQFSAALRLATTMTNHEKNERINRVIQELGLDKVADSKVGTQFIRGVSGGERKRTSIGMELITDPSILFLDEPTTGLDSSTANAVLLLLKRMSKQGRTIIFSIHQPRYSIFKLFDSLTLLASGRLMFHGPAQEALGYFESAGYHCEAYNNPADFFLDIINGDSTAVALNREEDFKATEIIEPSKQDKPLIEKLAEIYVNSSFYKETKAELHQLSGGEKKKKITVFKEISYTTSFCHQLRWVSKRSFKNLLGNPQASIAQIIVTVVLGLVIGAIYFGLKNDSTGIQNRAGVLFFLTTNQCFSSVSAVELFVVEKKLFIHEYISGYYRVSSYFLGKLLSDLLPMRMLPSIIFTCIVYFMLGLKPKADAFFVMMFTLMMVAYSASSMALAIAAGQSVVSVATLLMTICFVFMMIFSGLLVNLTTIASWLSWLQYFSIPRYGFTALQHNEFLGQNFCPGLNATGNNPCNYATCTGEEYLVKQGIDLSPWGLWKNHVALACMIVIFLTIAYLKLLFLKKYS
Test: TP_TRANSPORTER: correlation hBCRPmRNA with flavopiridol induced apoptosis resistance
Type: functional, cell-based

CN1CC[C@H](c2c(O)cc(O)c3c(=O)cc(-c4ccccc4Cl)oc23)[C@H](O)C1 [ALVOCIDIB]
Activity: substrate []

From ChEMBL document CHEMBL2074435, “Quantitative analysis of breast cancer resistance protein and cellular resistance to flavopiridol in acute leukemia patients” (Clin Cancer Res, 2003)
